In patent publication US8198273B2, “Compounds and methods for kinase modulation, and indications therefor” (Plexxikon Inc., priority 2009, dated 2012):

Assays:
[1] = target: B-Raf (Homo sapiens, UniProt P15056); assay: B-Raf biochemical kinase inhibition (AlphaScreen, biotin-MEK1 substrate); conditions: 100 μM ATP
Description: (§1) Compounds to be tested are diluted in dimethyl sulfoxide to a concentration of 0.1 mM. These are serially diluted 15 μL into 30 μL of dimethyl sulfoxide seven times in 96 well plates for a total of 8 dilution points, and for each dilution point 1 μL is added to a well of an assay plate. […] The reaction is started with addition of 10 μL of 200 μM ATP (i.e. final 100 μM ATP). […] The plates are incubated for 3 hours at room temperature and read on Envision reader (Perkin Elmer). […] The signal vs. compound concentration is used to determine the IC50.

[2] = target: B-Raf V600E (Homo sapiens, UniProt P15056, V600E); assay: B-Raf V600E biochemical kinase inhibition (AlphaScreen, biotin-MEK1 substrate); conditions: 100 μM ATP
Chain of B-Raf V600E (P15056 whole entry V600E): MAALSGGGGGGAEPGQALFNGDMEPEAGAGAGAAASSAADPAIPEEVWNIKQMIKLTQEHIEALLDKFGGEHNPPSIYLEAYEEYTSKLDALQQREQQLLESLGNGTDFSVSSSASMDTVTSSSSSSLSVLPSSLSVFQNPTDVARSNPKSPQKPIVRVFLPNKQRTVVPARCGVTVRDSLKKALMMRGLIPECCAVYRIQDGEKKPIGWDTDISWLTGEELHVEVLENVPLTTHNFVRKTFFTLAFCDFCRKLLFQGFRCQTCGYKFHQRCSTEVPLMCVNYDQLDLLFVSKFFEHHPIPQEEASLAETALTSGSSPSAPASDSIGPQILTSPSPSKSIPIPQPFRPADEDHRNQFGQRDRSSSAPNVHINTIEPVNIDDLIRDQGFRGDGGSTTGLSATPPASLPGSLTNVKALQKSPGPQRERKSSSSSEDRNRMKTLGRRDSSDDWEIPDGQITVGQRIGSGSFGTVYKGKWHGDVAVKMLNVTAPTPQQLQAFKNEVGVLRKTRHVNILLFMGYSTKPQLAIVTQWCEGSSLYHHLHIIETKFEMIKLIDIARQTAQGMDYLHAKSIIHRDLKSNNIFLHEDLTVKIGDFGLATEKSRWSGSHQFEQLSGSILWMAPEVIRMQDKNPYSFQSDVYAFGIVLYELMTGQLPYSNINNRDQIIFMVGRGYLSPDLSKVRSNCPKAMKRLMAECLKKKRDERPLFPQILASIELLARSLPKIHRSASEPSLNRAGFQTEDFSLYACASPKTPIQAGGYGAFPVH
Description: as §1

[3] = test system: A375 melanoma cells (B-Raf V600E); assay: A375 cell growth inhibition (ATPlite); type: cell-based; conditions: Homo sapiens, A-375, 72 h; A375, 3 days incubation
Description: (§2) Compounds are assessed in a variety of cell based assays. For example human cell lines with B-Raf V600E mutation (A375 melanoma, SKMEL3 melanoma, and COL0205 colon adenocarcinoma), as well as tumorigenic cell lines with wild-type B-RAF (SW620 colon adenocarcinoma) or with Ras mutations (SKMEL2 melanoma and IPC298 melanoma). Similar assays may be used to assess additional tumorigenic cell lines with Ras mutations, including, but not limited to, M202, M207, M243, M244, M296, S117, HCT116, HCT15, DLD1, MiaPaCa, A549, NCI-H23, NCI-H460, HOP62, MDA-MB231, Hs-578T, HL60, MOLT-4, and CCRF-CEM.
(§3) On day 1, cells are counted, then centrifuged in a conical tube for 5 minutes at 1000 rpm. The supernatant is removed and cells are re-suspended as follows: • SW620 (ATCC catalog #CCL-27): resuspend in Leibovitz's L-15 medium, 2 mM L-glutamine, 10% fetal bovine serum to 6×10^4 cells/mL. • A375 (ATCC catalog #CRL-1619): resuspend in Dulbecco's modified Eagle's medium, 4 mM L-glutamine, 4.5 g/L D-glucose, 10% fetal bovine serum to 6×10^4 cells/mL. • COL0205 (ATCC catalog #CCL-222): resuspend in RPMI 1640, 2 mM L-glutamine, 1.5 g/L sodium bicarbonate, 4.5 g/L D-glucose, 10 mM HEPES, 1.0 mM sodium pyruvate, 10% fetal bovine serum to 6×10^4 cells/mL. • SKMEL2 (ATCC catalog #HTB-68): resuspend in Minimum Eagle essential medium, 2 mM L-glutamine, 1.5 g/L sodium bicarbonate, 0.1 mM non-essential amino acids, 1.0 mM sodium pyruvate, 10% fetal bovine serum to 6×10^4 cells/mL. • SKMEL3 (ATCC catalog #HTB-69): resuspend in McCoy's 5A medium, 1.5 mM L-glutamine, 15% fetal bovine serum to 6×10^4 cells/mL. • IPC298 (DSMZ catalog #ACC 251): resuspend in RPMI 1640, 2 mM L-glutamine, 10% fetal bovine serum to 6×10^4 cells/mL.
(§4) The cells are plated, 50 μL in each well of a 96-well dish (Corning 3610) and incubated at 37° C. in 5% CO2 overnight, cells plated to a final concentration of cells as follows:
(§5) On day 2, compound at a maximum concentration of 5 mM is serially diluted 1:3 for a total of 8 point titration with DMSO as a control. A 1 μL aliquot of each dilution point and control is added to 249 μL growth media and 50 μL is added to a well containing cells, providing 10 μM compound at the maximum concentration point. The cells are incubated for 3 days at 37° C. in 5% CO2.
(§6) On day 5, ATPlite 1 step Luminescence Assay System (Perkin Elmer #6016739) is brought to room temperature along with the cell cultures. ATPlite is added 25 μL to each well, shake for 2 minutes, and the cells are incubated at room temperature for 10 minutes, then luminescence is read on Safire reader. The measured luminescence correlates directly with cell number, such that the reading as a function of compound concentration is used to determine the IC50 value.
(§7) It is understood that the results of these assays may vary as assay conditions are varied. Inhibition levels determined under the conditions described herein represent a relative activity for the compounds tested under the specific conditions employed. The cell based assays are likely to show variability due to the complexity of the system and the sensitivity thereof to any changes in the assay conditions. […] Results for compounds that are tested and show substantially no inhibition below the highest tested concentration are represented as “-” in the tables below. In some instances, the compounds were not tested in all of the assays, or assay results were not valid, as indicated by NA in the tables below.

[4] = test system: COLO205 colon adenocarcinoma cells (B-Raf V600E); assay: COLO205 cell growth inhibition (ATPlite); type: cell-based; conditions: Homo sapiens, COLO 205, 72 h; COLO205, 3 days incubation
Description: as §2, §3, §4, §5, §6, §7

[5] = test system: SW620 colon adenocarcinoma cells (wild-type B-RAF); assay: SW620 cell growth inhibition (ATPlite); type: cell-based; conditions: Homo sapiens, SW-620, 72 h; SW620, 3 days incubation
Description: as §2, §3, §4, §5, §6, §7

[6] = test system: SKMEL2 melanoma cells (Ras mutation); assay: SKMEL2 cell growth inhibition (ATPlite); type: cell-based; conditions: Homo sapiens, SK-MEL-2, 72 h; SKMEL2, 3 days incubation
Description: as §2, §3, §4
SKMEL2: 2,000 cells per well.
as §5, §6, §7

[7] = target: c-Raf-1 (Homo sapiens, UniProt P04049); assay: c-Raf-1 biochemical kinase inhibition (AlphaScreen, biotin-MEK1 substrate); conditions: 100 μM ATP
Chain of c-Raf-1 (P04049 whole entry): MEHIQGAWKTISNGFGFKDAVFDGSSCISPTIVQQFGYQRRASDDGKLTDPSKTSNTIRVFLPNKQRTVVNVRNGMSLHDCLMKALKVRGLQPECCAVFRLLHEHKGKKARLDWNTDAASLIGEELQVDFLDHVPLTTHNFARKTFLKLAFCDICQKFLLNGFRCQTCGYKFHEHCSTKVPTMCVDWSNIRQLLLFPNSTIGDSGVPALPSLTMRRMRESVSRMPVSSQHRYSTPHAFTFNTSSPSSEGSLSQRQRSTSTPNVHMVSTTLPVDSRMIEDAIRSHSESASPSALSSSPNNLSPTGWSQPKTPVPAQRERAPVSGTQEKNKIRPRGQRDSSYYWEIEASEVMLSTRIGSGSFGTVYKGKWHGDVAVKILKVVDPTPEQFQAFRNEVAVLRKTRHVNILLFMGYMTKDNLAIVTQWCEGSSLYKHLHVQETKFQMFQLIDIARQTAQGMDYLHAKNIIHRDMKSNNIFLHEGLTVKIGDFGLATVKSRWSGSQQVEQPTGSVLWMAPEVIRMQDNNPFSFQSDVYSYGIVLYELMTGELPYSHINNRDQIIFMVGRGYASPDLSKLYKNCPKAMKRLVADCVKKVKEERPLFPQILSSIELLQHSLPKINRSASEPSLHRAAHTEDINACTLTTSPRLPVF
Description: as §1

[8] = target: T1, A-Raf (Homo sapiens, UniProt P10398); assay: A-Raf biochemical kinase inhibition (AlphaScreen, biotin-MEK1 substrate); conditions: 100 μM ATP
T1 sequence (P10398 1-606): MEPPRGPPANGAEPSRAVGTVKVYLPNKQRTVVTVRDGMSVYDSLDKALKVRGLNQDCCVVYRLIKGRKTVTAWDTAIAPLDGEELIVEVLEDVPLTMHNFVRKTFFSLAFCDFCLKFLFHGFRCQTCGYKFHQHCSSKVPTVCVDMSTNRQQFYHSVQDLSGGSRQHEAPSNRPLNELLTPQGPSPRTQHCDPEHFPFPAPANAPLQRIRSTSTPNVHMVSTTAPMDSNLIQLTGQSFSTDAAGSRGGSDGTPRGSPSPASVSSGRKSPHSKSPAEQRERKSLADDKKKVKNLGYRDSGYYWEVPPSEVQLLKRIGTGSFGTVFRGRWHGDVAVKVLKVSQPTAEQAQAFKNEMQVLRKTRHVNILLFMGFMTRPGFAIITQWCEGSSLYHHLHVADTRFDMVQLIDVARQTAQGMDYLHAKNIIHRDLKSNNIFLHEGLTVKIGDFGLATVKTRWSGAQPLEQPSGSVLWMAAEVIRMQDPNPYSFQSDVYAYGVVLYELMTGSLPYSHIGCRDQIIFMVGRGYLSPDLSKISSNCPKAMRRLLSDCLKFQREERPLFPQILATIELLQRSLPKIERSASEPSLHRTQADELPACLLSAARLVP
Description: as §1

Chain of B-Raf (P15056 whole entry): as the sequence (P15056 whole entry V600E) above, with E600V counted along it

Structure (SMILES) | IC50 [1] | IC50 [2] | IC50 [3] | IC50 [4] | IC50 [5] | IC50 [6] | IC50 [7] | IC50 [8]
CCCS(=O)(=O)Nc1ccc(F)c(C(=O)c2c[nH]c3ncc(-c4ccc(C(N)=O)nc4)cc23)c1F [P-2220, 5-{3-[2,6-Difluoro-3-(propane-1-sulfonylamino)-benzoyl]-1H-pyrrolo[2,3-b]pyridin-5-yl}-pyridine-2-carboxylic acid amide] | < 100 nM | < 100 nM | < 1000 nM | < 1000 nM | > 10000 nM |  | < 100 nM | < 10 nM
CCCS(=O)(=O)Nc1ccc(F)c(C(=O)c2c[nH]c3ncc(-c4ccc(NC(C)=O)cc4)cc23)c1F [P-2161, N-(4-{3-[2,6-Difluoro-3-(propane-1-sulfonylamino)-benzoyl]-1H-pyrrolo[2,3-b]pyridin-5-yl}-phenyl)-acetamide] |  | < 10 nM | < 1000 nM | < 1000 nM | > 10000 nM | < 10000 nM |  | 
CC(C)CS(=O)(=O)Nc1ccc(F)c(C(=O)c2c[nH]c3ncc(-c4cnn(C)c4)cc23)c1F [P-2299, 2-Methyl-propane-1-sulfonic acid {2,4-difluoro-3-[5-(1-methyl-1H-pyrazol-4-yl)-1H-pyrrolo[2,3-b]pyridine-3-carbonyl]-phenyl}-amide] | < 10 nM | < 10 nM | < 1000 nM | < 1000 nM | > 10000 nM | > 10000 nM |  | 

Further lines, results first:

IC50 [1] | IC50 [2] | IC50 [3] | IC50 [4] | IC50 [5] | IC50 [6] | IC50 [7] | IC50 [8] | Structure (SMILES)
< 100 nM | < 100 nM | < 1000 nM | < 1000 nM | < 10000 nM | < 5000 nM |  |  | CCCS(=O)(=O)Nc1ccc(F)c(C(=O)c2c[nH]c3ncc(-c4ccc(C)nc4F)cc23)c1F [P-2172, Propane-1-sulfonic acid {2,4-difluoro-3-[5-(2-fluoro-6-methyl-pyridin-3-yl)-1H-pyrrolo[2,3-b]pyridine-3-carbonyl]-phenyl}-amide]
< 10 nM | < 10 nM | < 5000 nM | < 5000 nM | > 10000 nM | > 10000 nM | < 10 nM | < 10 nM | CCCS(=O)(=O)Nc1ccc(F)c(C(=O)c2c[nH]c3ncc(-c4ccc(O)nc4)cc23)c1F [P-2234, Propane-1-sulfonic acid {2,4-difluoro-3-[5-(6-hydroxy-pyridin-3-yl)-1H-pyrrolo[2,3-b]pyridine-3-carbonyl]-phenyl}-amide]
